These are literature values, as cited in patent US12358215B2, “Binders and methods of binder jetting including branched polymer binders and articles made therefrom” (VIRGINIA TECH INTELLECTUAL PROPERTIES, INC., priority 2019, dated 2025).

Regarding `CC(=O)Nc1ccc(O)cc1` [Acetaminophen, acetaminophen], the “solubility in cold water” value was “only slightly soluble”.
